# Data from patent EP2961395B1, “TARGETED NANOPARTICLES” (CALIFORNIA INSTITUTE OF TECHNOLOGY, priority 2013, dated 2014).
# Where two headings read alike, the source gives them in different places.
# Columns and labels:
# BT-474 = test: Cytotoxicity assay (CellTiter 96 AQueous One) in BT-474; format: cell-based; conditions: Homo sapiens; BT-474 (HER2 +); 72 h; CPT-containing items based on CPT content
# Excerpt: (§1) Wells containing untreated cells were used as controls.
# BT-474 xenograft tumors = system: BT-474 xenograft tumors
# Protocol: Treatments began on day 1. […] All treatments were freshly prepared and given via intravenous tail vein injection. Injections were standardized at 150 µl per 20 g body weight of mice. […] Tumor sizes were recorded three times a week using caliper measurements (length x width^2/2) and health of the animals was continuously monitored. Animals were euthanized when tumor volumes exceeded 1000 mm^3. Six weeks after beginning of the treatment, animals were euthanized by CO2 asphyxiation.
# MDA-MB-231 = test: Cytotoxicity assay (CellTiter 96 AQueous One) in MDA-MB-231; format: cell-based; conditions: Homo sapiens; MDA-MB-231 (HER2 -); 72 h; CPT-containing items based on CPT content
# Excerpt: as §1
# MCF-7 = test: Cytotoxicity assay (CellTiter 96 AQueous One) in MCF-7; format: cell-based; conditions: Homo sapiens, MCF7; MCF-7 (HER2 -); 72 h; CPT-containing items based on CPT content
# Excerpt: as §1
# [1] = Plasma pharmacokinetics of free CPT in CD2F1 mice (comparison)
# Protocol: A DNA ladder is loaded in Lane 1. […] A DNA ladder is loaded in Lane 1. […] Free CPT injected at 10 mg/kg into CD2F1 mice is shown as comparison. (A) Plasma concentration of polymer bound CPT as a function of time. […] (A) Percent injected dose (ID) of total CPT per gram of tumor, heart, liver, spleen, kidney or lung. (B) Percentage of total CPT in each organ that is unconjugated in tumor, heart, liver, spleen, kidney and lung. (C) Total concentration of CPT in plasma.
# SKBR-3 = test: Cytotoxicity assay (CellTiter 96 AQueous One) in SKBR-3; format: cell-based; conditions: Homo sapiens, SK-BR-3; SKBR-3 (HER2 +); 72 h; CPT-containing items based on CPT content
# Excerpt: as §1
# [2] = pKa determination by absorbance change on titration; format: physicochemical; conditions: 10^-3 M PBA in 0.1 M PBS, titrated with 1 N NaOH, absorbance at 268 nm
# Protocol: The pKa of the synthesized PBA compounds were found by measuring the change in absorbance of PBA as it converted from trigonal (in low pH) to tetrahedral (in high pH) conformation. To a solution of 10^-3 M PBA in 0.1 M PBS, pH 7.4 was titrated 1 N NaOH. pH was recorded and corresponding samples were removed for absorbance measurements at 268 nm. Table 2. pKa and binding constants of PBA compounds
# pKa values of the modified PBAs were determined by absorbance changes due to conformational change of PBA from trigonal to tetrahedral form as the pH was increased (Table 2). […] Thus, at physiological pH, most of the PBA was present in the reactive anionic tetrahedral form. Binding constants between PBA and MAP were found by competitive binding with Alizarin Red S in 0.1 M PBS, pH 7.4.
# [3] = 8 mg/kg (MAP-CPT on CPT basis) i.v. once per week for 3 weeks
# [4] = 80 mg/kg i.v. once per week for 3 weeks
structure (smiles),measurement,setting,value
"CC[C@@]1(O)C(=O)OCc2c1cc1n(c2=O)Cc2cc3ccccc3nc2-1 [CPT, Camptothecin]",IC50,BT-474,4000 nM
same,Mean tumor volume,BT-474 xenograft tumors; [3],808 mm^3
same,Median tumor volume,BT-474 xenograft tumors; [3],417 mm^3
same,NTRD (number of treatment related death),BT-474 xenograft tumors; [3],4
same,Nend (number of animals surviving to end of study),BT-474 xenograft tumors; [3],8/0
same,Neuthan (number of animals euthanized due to exceeding tumor size limit of 1000 mm^3),BT-474 xenograft tumors; [3],4
same,Nreg to zero (number of animals with tumors regressed to zero at the end of study),BT-474 xenograft tumors; [3],0
same,tumor inhibition compared to control group,BT-474 xenograft tumors; [3],no tumor inhibition
same,IC50,MDA-MB-231,100 nM
same,IC50,MCF-7,300 nM
same,AUC,"[1]; CD2F1, mouse, in vivo, 10 mg/kg",1600 ng·h/mL
same,injected dose remaining in circulation,"[1]; after 8 h, CPT alone at 10 mg/kg",0.01%
same,IC50,SKBR-3,30 nM
CCc1c2c(nc3ccc(OC(=O)N4CCC(N5CCCCC5)CC4)cc13)-c1cc3c(c(=O)n1C2)COC(=O)[C@]3(O)CC [Irinotecan],NTRD (number of treatment related death),BT-474 xenograft tumors; [4],1
same,Nend (number of animals surviving to end of study),BT-474 xenograft tumors; [4],8/7
same,Neuthan (number of animals euthanized due to exceeding tumor size limit of 1000 mm^3),BT-474 xenograft tumors; [4],0
same,Nreg to zero (number of animals with tumors regressed to zero at the end of study),BT-474 xenograft tumors; [4],0
same,tumor inhibition compared to control group,BT-474 xenograft tumors; [4],non-significant tumor inhibition
"OB(O)c1ccccc1 [PBA, phenylboronic acid]",pKa,[2],8.8
